In patent US7713994B2 (Wyeth LLC, priority 2005, dated 2010):
Read-outs that look alike come from different tables or passages of the source.

How the values were obtained:
cyclin D1/cdk 4 enzyme = biological target: T1, cyclin D1/cdk 4 enzyme (Homo sapiens, UniProt P11802); test: CDK4 ELISA kinase assay (phospho-Rb ser 795 detection); type: biochemical
T1 construct: made in house; host or cells: Sf9 insect cells, recombinant baculovirus
Procedure, shortened: (§1)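 Sf9-derived cyclin/CDK, 200 μM ATP, immobilized GST-Rb; 30° C/1 h. Detection: phospho-Ser795 Ab, HRP, TMB, OD450.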

cyclin E/CDK2 enzyme = biological target: T2, cyclin E/CDK2 enzyme (Homo sapiens, UniProt P24941); test: CDK2 ELISA kinase assay (phospho-Rb ser 795 detection); type: biochemical
T2 construct: made in house; host or cells: Sf9 insect cells, recombinant baculovirus
Procedure, shortened: as §1

cyclin B/CDK1 enzyme = biological target: T3, cyclin B/CDK1 enzyme (Homo sapiens, UniProt P06493); test: CDK1 ELISA kinase assay (phospho-Rb ser 795 detection); type: biochemical
T3 construct: purchased New England BioLabs; host or cells: Sf9 insect cells, recombinant baculovirus
T3 sequence (P06493 whole entry): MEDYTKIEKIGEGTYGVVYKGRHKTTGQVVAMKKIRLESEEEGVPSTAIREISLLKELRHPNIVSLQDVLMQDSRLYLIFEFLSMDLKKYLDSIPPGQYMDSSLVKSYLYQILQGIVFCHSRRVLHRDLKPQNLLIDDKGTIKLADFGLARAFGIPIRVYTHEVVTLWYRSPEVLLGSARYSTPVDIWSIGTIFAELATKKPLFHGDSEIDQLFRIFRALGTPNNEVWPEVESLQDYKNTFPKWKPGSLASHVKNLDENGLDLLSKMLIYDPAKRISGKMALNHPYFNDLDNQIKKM
T3 sequence (P14635 whole entry partner): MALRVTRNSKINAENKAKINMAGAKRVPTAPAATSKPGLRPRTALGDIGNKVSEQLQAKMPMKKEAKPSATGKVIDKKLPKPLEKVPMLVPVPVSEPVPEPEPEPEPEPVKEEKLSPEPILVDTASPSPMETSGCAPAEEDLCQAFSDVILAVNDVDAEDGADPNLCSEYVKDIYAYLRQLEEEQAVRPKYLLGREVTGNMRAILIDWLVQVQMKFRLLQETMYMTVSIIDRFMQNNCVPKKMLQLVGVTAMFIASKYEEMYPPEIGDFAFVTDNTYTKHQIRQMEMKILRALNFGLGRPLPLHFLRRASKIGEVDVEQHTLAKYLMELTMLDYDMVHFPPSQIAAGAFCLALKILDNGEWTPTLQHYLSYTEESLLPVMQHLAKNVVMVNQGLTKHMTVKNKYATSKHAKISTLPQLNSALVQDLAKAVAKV
Procedure, shortened: as §1

BT474 = test: Cytotoxicity assay (SRB), BT474; type: cell-based
Procedure, shortened: (§2)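 Cells grown in RPMI 1640 with 5% FBS were treated with compound for three days (HCT-116, LoVo, MCF-7) or six days (BT474). Viable cell mass was quantified by sulforhodamine B staining of TCA-fixed protein and read at 540 nm.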

HCT-116 = test: Cytotoxicity assay (SRB), HCT-116; type: cell-based; settings: HCT116 cells, SRB, read-out: In Vitro Cellular Activity IC50 HCT116
Procedure, shortened: as §2

LoVo = test: Cytotoxicity assay (SRB), LoVo; type: cell-based; settings: LoVo cells, SRB, read-out: In Vitro Cellular Activity IC50 LOVO
Procedure, shortened: as §2

MCF-7 = test: Cytotoxicity assay (SRB), MCF-7; type: cell-based; settings: MCF-7 cells, SRB, read-out: In Vitro Cellular Activity IC50 MCF-7
Procedure, shortened: as §2

[1] = In Vitro Enzyme Assay, cyclin D1/cdk 4, read-out: CDK4 IC50
[2] = In Vitro Enzyme Assay, cyclin E/CDK2, read-out: CDK2 IC50
[3] = In Vitro Enzyme Assay, cyclin B/CDK1, read-out: CDK1 IC50
[4] = Homo sapiens, BT-474, 144 h, BT474 cells, 6 days, SRB; read-out: In Vitro Cellular Activity IC50 BT474
[5] = Homo sapiens, HCT-116, 72 h, 3 days
[6] = Homo sapiens, LoVo, 72 h, 3 days
[7] = Homo sapiens, MCF7, 72 h, 3 days
[8] = In Vitro Enzyme Assays, 200 μM ATP, read-out: CDK4 IC50
[9] = In Vitro Enzyme Assays, read-out: CDK2 IC50
[10] = In Vitro Enzyme Assays, read-out: CDK1 IC50
[11] = Homo sapiens, BT-474, 144 h, BT474 cells, SRB, 6 days; read-out: In Vitro Cellular Activity IC50 BT474
[12] = Homo sapiens, HCT-116, 72 h, three days
[13] = Homo sapiens, LoVo, 72 h, three days
[14] = Homo sapiens, MCF7, 72 h, three days

T1 sequence (P11802 whole entry, species assumed): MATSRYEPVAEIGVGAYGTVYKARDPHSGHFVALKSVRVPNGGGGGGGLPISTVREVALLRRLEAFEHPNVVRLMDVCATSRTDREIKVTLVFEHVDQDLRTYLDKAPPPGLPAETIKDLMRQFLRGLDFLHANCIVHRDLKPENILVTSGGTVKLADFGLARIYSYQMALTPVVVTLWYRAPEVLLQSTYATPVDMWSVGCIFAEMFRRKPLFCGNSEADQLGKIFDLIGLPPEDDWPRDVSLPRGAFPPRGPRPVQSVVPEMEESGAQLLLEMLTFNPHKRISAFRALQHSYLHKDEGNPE
T1 sequence (P24385 whole entry partner, species assumed): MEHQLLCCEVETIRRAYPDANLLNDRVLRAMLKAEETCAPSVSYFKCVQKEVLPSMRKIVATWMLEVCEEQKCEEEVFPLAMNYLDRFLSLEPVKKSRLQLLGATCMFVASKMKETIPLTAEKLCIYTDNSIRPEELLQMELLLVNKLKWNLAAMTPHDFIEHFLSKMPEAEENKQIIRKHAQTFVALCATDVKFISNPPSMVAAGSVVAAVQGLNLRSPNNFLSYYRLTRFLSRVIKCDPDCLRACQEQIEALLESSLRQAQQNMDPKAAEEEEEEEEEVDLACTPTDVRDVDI

IC50 (cyclin D1/cdk 4 enzyme; [1]) [µM] | IC50 (cyclin E/CDK2 enzyme; [2]) [µM] | IC50 (cyclin B/CDK1 enzyme; [3]) [µM] | IC50 (cyclin D1/cdk 4 enzyme; [8]) [µM] | IC50 (cyclin E/CDK2 enzyme; [9]) [µM] | IC50 (cyclin B/CDK1 enzyme; [10]) [µM] | Compound | IC50 (BT474; [4]) [µM] | IC50 (HCT-116; [5]) [µM] | IC50 (LoVo; [6]) [µM] | IC50 (MCF-7; [7]) [µM] | also measured
0.24 | > 50 | > 50 |  |  |  | O=Cc1ccc(-c2ccc3c(c2)/C(=C/Nc2ccc(CN4CCCCC4)cc2)C(=O)NC3=O)o1 [Example 492, 5-[(4Z)-1,3-Dioxo-4-({[4-(piperidin-1-ylmethyl)phenyl]amino}methylene)-1,2,3,4-tetrahydroisoquinolin-6-yl]-2-furaldehyde] | 3.3 | 1 | 3 | 4.1 | 
 |  |  | 2.3 | 15.4 | 19.3 | NC(=O)C1CCN(c2ccc(N/C=C3\C(=O)NC(=O)c4ccc(I)cc43)cc2)CC1 [Example 430, 1-(4-{[(Z)-(6-Iodo-1,3-dioxo-2,3-dihydroisoquinolin-4(1H)-ylidene)methyl]amino}phenyl)piperidine-4-carboxamide] | 13.8 | 5.6 | 14.9 | 11.7 | 
2.7 | > 50 | > 50 |  |  |  | O=C1NC(=O)c2ccc(I)cc2/C1=C/NCc1cc(O)ccc1I [Example 496, 4-[(5-Hydroxy-2-iodo-benzylamino)-methylene]-6-iodo-4H-isoquinoline-1,3-dione] | 7.4 | 2.6 | 3.1 | 5.4 | 
 |  |  | 0.77 | 31 | > 50 | C=CCN1CCCC1c1ccc(N/C=C2\C(=O)NC(=O)c3ccc(I)cc32)cc1 (stereo not drawn) [Example 419, 4-{[4-(1-Allyl-pyrrolidin-2-yl)-phenylamino]-methylene}-6-iodo-4H-isoquinoline-1,3-dione] | 12.9 | 7 | 12 | 7.6 | 
 |  |  | 7.4 | > 50 | > 50 | COc1ccc(-c2ccc3c(c2)/C(=C/Nc2ccc(N4CCN(C)CC4)cc2)C(=O)NC3=O)cc1 [Example 114, (4Z)-6-(4-methoxyphenyl)-4-({[4-(4-methylpiperazin-1-yl)phenyl]amino}methylene)-isoquinoline-1,3(2H,4H)-dione] |  |  |  |  | IC50 (BT474; [11]): 5 µM; IC50 (HCT-116; [12]): 1.9 µM; IC50 (LoVo; [13]): 6.5 µM; IC50 (MCF-7; [14]): 6.3 µM
 |  |  | 0.8 | 4.3 | 4.3 | CN1CCN(c2ccc(N/C=C3\C(=O)NC(=O)c4ccc(-c5ccc(C#N)cc5)cc43)cc2)CC1 [Example 153, 4-(4-{[4-(4-Methyl-piperazin-1-yl)-phenylamino]-methylene}-1,3-dioxo-1,2,3,4-tetrahydro-isoquinolin-6-yl)-benzonitrile] |  |  |  |  | IC50 (BT474; [11]): 3.4 µM; IC50 (HCT-116; [12]): 1.1 µM; IC50 (LoVo; [13]): 3.7 µM; IC50 (MCF-7; [14]): 3.4 µM
 |  |  | 31.7 | 6.1 | > 50 | COc1cc(CN/C=C2\C(=O)NC(=O)c3ccc(Br)cc32)ccn1 [Example 222, (4Z)-6-Bromo-4-({[(2-methoxypyridin-4-yl)methyl]amino}methylene)isoquinoline-1,3(2H,4H)-dione] |  |  |  |  | IC50 (BT474; [11]): 13 µM; IC50 (HCT-116; [12]): 14 µM; IC50 (LoVo; [13]): 19 µM; IC50 (MCF-7; [14]): 13 µM
2.3 | > 50 | > 50 |  |  |  | 6-Bromo-4-{[4-(4-methyl-piperazin-1-yl)-phenylamino]-methylene}-1,4-dihydro-2H-isoquinolin-3-one & 8-Bromo-4-{[4-(4-methyl-piperazin-1-yl)-phenylamino]-methylene}-1,4-dihydro-2H-isoquinolin-3-one [Example 845] |  |  |  |  | IC50 (BT474; BT474 cells, 6 days, SRB; read-out: In Vitro Cellular Activity IC50 BT474): 7.5 µM; IC50 (HCT-116; 3 days): 4.2 µM; IC50 (LoVo; 3 days): 2.5 µM; IC50 (MCF-7; 3 days): 4.5 µM
20.1 | 18 | 37.1 |  |  |  | O=C1NCc2cc(Br)ccc2C1=CNc1ccc(CCO)cc1 [Example 863, 7-Bromo-4-{[4-(2-hydroxy-ethyl)-phenylamino]-methylene}-1,4-dihydro-2H-isoquinolin-3-one] | 31.1 | 11.2 | 10.2 | 16.3 | 
0.16 | 8.2 | 42.5 |  |  |  | O=C1NC(=O)c2ccc(C=CCn3ccnc3)cc2C1=CNCc1ccc(O)c(O)c1 [Example 665, 4-[(3,4-Dihydroxy-benzylamino)-methylene]-6-(3-imidazol-1-yl-propenyl)-4H-isoquinoline-1,3-dione] | 28.9 | 46.8 | > 50 | 13 | 
 |  |  |  |  |  | CC1(C)Oc2cc(CN/C=C3\C(=O)NC(=O)c4ccc(Br)cc43)cc(OC(=O)C3CC3)c2O1 [Example 873, 6-({[(Z)-(6-Bromo-1,3-dioxo-2,3-dihydroisoquinolin-4(1H)-ylidene)methyl]amino}methyl)-2,2-dimethyl-1,3-benzodioxol-4-yl cyclopropanecarboxylate] | 42.7 | 24.5 | 41.1 | 29.2 | IC50 (cyclin D1/cdk 4 enzyme; In Vitro Enzyme Assay, read-out: CDK4 IC50): > 50 µM; IC50 (cyclin E/CDK2 enzyme; In Vitro Enzyme Assay, read-out: CDK2 IC50): 24.7 µM; IC50 (cyclin B/CDK1 enzyme; In Vitro Enzyme Assay, read-out: CDK1 IC50): 1.9 µM
0.04 | 40.6 | 35.5 |  |  |  | COc1ccc(CNC=C2C(=O)NC(=O)c3ccc(-c4ccc5[nH]ccc5c4)cc32)cc1O [Example 835, 4-[(3-Hydroxy-4-methoxy-benzylamino)-methylene]-6-(1H-indol-5-yl)-4H-isoquinoline-1,3-dione] | 11.7 | 10 | 11.3 | 12.6 | 
0.01 | 15.1 | > 50 |  |  |  | COc1ccc(-c2ccc3c(c2)C(=CNCc2ccc(OC)c(O)c2)C(=O)NC3=O)cc1 [Example 833, 4-[(3-Hydroxy-4-methoxy-benzylamino)-methylene]-6-(4-methoxy-phenyl)-4H-isoquinoline-1,3-dione] | 25.1 | 16.9 | 19.2 | 26.5 | 
0.01 | 4.1 | 8.1 |  |  |  | O=C1NC(=O)c2ccc(-c3ccco3)cc2C1=CNCc1ccc(O)c(O)c1 [Example 621, 4-[(3,4-Dihydroxy-benzylamino)-methylene]-6-furan-2-yl-4H-isoquinoline-1,3-dione] | 3.5 | 9.7 | 8.7 | 6.8 | 
0.1 | 5 | 22.4 |  |  |  | CCCCn1ccc(CN/C=C2\C(=O)NC(=O)c3ccc(I)cc32)cc1=O [Example 529, (4Z)-6-Iodo-4-({[(1-butyl-2-oxo-1,2-dihydropyridin-4-yl)methyl]amino}methylene)isoquinoline-1,3(2H,4H)-dione] | 1.2 | 1.7 | 1.5 | 2.4 | 
2.1 | 27.1 | > 50 |  |  |  | O=C1NC(=O)c2ccc(-c3cccc([N+](=O)[O-])c3)cc2C1=CNCc1ccc(O)c(O)c1 [Example 820, 4-[(3,4-Dihydroxy-benzylamino)-methylene]-6-(3-nitro-phenyl)-4H-isoquinoline-1,3-dione] | > 50 | 41.5 | 47.9 | > 50 | 
 |  |  | 9.8 | 38 | > 50 | O=C1NC(=O)c2ccc(Br)cc2/C1=C/NCCN1CCNCC1 [Example 307, (Z)-6-Bromo-4-((2-(piperazin-1-yl)ethylamino)methylene)isoquinoline-1,3(2H,4H)-dione] |  |  |  |  | IC50 (BT474; [11]): 46 µM; IC50 (HCT-116; [12]): 23 µM; IC50 (LoVo; [13]): 28 µM; IC50 (MCF-7; [14]): 25 µM
 |  |  | 0.22 | > 50 | > 50 | CN1CCN(c2ccc(N/C=C3\C(=O)NC(=O)c4ccc(-c5ccoc5)cc43)cc2)CC1 [Example 236, (4Z)-6-(3-Furyl)-4-({[4-(4-methylpiperazin-1-yl)phenyl]amino}methylene)isoquinoline-1,3(2H,4H)-dione] |  |  |  |  | IC50 (BT474; [11]): 1 µM; IC50 (HCT-116; [12]): 1.2 µM; IC50 (LoVo; [13]): 2.2 µM; IC50 (MCF-7; [14]): 1.1 µM
